Like-named read-outs stand apart in the source and are kept apart here. Where a SMILES comes first, the peptide text is derived from it.
Experiments:
[1] = test system: Sandostatin; assay: Recovery of structural integrity of Sandostatin in dry formulations following gamma irradiation (HPLC); type: physicochemical; settings: structural integrity by HPLC, excipient:Sandostatin weight ratio 10:1, 25-40 kGy
Procedure: (§1) In each example, an aqueous solution of a protein was prepared with selected additives in an Eppendorf tube or in a glass vial. Water was removed from the formulation by drying under a stream of nitrogen at 30° C. and subsequent incubation at atmospheric pressure in the presence of a dessicant. The Eppendorf tubes or the glass vials were sealed and delivered to an industrial sterilisation service for gamma irradiation, with a dose range typical for sterile medical products. The gamma-irradiated samples were reconstituted on their return and analysed for protein activity or structural integrity. The results were compared with those achieved using control (i.e. non-irradiated) samples.
(§2) The dry samples (approx. 20 μg in an Eppendorf tube) were gamma-irradiated by an industry-standard commercial sterilising service provided by Isotron PLC (Swindon, Wilts, UK), using a Cobalt 60 gamma source at ambient temperature. The radiation dose was in the range of 25-40 kGy.
Mobile phase A was 0.1 M triethylamine adjusted to pH 2.3 with phosphoric acid. Mobile phase B was acetonitrile. The mobile phases were filtered prior to their use. The following linear gradient was used: time 0: 90% A+10% B; time 35 min: 60% A+40% B. The liquid chromatograph (Agilent 1100 series) was equipped with a 214 nm detector, guard column and a 4.6×150 mm C18 column with a granulometry of 5 μm and a porosity of 30 nm, maintained at ambient temperature. The flow rate was maintained at 1.0 mL min^−1. Injection volume was 50 μL (typically sandostatin at 200 μg mL^−1). Results were expressed as % of main peak area (i.e. area of the peak corresponding to intact sandostatin measured in the gamma irradiated sample with respect to that measured in non-irradiated sample of identical composition). A chromatogram of a standard solution of sandostatin was recorded after every 12 samples to ensure that no drift in the position of the major peak had occurred. The control measurements ruled out any ambiguity in interpreting the chromatograms.

[2] = cited from earlier work; for Rate constant k: Table 1, singlet oxygen scavengers, measured in specified solvents
[3] = target: T1, catalase (Bos taurus, UniProt P00432); assay: Activity recovery of catalase in dry formulations following gamma irradiation; type: physicochemical, bovine; settings: for Enzyme activity remaining after gamma-irradiation: catalase 100 μg mL^−1 prior to drying, dry, 25-40 kGy
T1 construct: Catalase (from bovine liver, Sigma C9322, 2380 U /mg solid); purchased Sigma C9322; host or cells: bovine liver
T1 sequence (P00432 2-527 limits assumed): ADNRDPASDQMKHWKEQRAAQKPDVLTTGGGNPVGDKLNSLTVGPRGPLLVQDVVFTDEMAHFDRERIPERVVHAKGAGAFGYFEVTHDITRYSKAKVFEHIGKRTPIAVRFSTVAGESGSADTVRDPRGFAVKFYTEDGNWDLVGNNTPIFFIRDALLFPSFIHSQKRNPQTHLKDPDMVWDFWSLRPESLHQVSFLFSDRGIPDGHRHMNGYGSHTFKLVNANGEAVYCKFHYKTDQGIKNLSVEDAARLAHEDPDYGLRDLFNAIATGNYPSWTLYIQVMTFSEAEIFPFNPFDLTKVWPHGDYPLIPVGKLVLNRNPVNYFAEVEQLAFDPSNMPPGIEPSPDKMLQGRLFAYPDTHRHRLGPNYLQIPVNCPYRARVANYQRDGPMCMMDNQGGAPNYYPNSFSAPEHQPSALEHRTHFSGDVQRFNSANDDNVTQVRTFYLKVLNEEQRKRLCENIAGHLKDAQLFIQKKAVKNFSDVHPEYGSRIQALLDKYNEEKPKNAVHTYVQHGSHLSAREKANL
Procedure: as §1, §2
The original solutions (i.e. solutions prior to drying) contained 100 μg mL^−1 of catalase and typically the total of 100 mM of protective compounds (i.e. 100 mM in case of a single compound, 50 mM+50 mM in case of two compounds, 33.3 mM+33.3 mM+33.3 mM in the case of three compounds etc.). The solutions were dried and gamma irradiated. Following the gamma irradiation, the samples, both pre- and post-gamma irradiated, were assayed for […] activity. This was performed according to the following procedure:
Water was added to the sample to achieve 100 μg mL^−1 of catalase. 100 μL of the solution was added to a mixture of 18 mL of PBS and 2 mL of hydrogen peroxide (30 mM in water) in a 125 mL polypropylene pot and mixed. The resulting mixture was incubated at room temperature precisely for 30 min. In the meantime, the following reagents were mixed in a plastic cuvette for spectrophotometric measurements: • 2.73 mL of citrate/phosphate buffer (0.1 M, pH 5.0) • 100 μL of tetramethylbenzidine (TMB) (3 mg/mL, dissolved in dimethyl sulphoxide (DMSO)) • 100 μL of lactoperoxidase
Following the 30 min incubation period, 70 μL of the catalase containing mixture was added to the cuvette and absorbance was read in approximately 30 s. The results were expressed as percentage recovery, by reference to the absorbance measured in the fresh samples (i.e. prior to incubation at increased temperature).

[4] = target: T2, human growth hormone (Homo sapiens, UniProt P01241); assay: Recovery of structural integrity of human growth hormone in dry formulations following gamma irradiation (HPLC); type: physicochemical; settings: structural integrity by HPLC, human growth hormone 2.5 mg mL^−1 prior to drying, 25-40 kGy
T2 construct: purchased National Institute of Biological Standards and Control; further samples on prescription from a GP surgery
T2 sequence (P01241 27-217): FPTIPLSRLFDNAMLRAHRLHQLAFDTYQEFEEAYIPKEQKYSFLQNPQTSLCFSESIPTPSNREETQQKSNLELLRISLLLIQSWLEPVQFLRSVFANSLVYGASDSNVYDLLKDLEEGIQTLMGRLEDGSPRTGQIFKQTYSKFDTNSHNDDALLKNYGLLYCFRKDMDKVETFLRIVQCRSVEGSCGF
Procedure: as §1, §2
Mobile phase was prepared by mixing 71 parts (by volume) of a solution of TRIS (0.05 M, in water adjusted with hydrochloric acid to a pH of 7.5) and 29 parts (by volume) of n-propylalcohol. The mobile phase was filtered prior to its use. The liquid chromatograph (Agilent 1100 series) was equipped with a 214 nm detector and a 4.6×250 mm column (Phenomenex 00G-4167-E0) packed with butylsilyl silica gel with a granulometry of 5 μm and a porosity of 30 nm, maintained at 45° C. The flow rate was maintained at 0.5 mL min^−1. 15 μL of aqueous samples of human growth hormone (typically 1-2.5 mg mL^−1) were injected. Results were expressed as % of peak area corresponding to the gamma irradiated sample with respect to that measured in non-irradiated sample.

[5] = target: T3, glucose oxidase (Aspergillus niger, UniProt P13006); assay: Activity recovery of glucose oxidase in dry formulations following gamma irradiation; type: physicochemical; settings: glucose oxidase 350 μg mL^−1 prior to drying, dry, 25-40 kGy
T3 construct: purchased Biocatalysts G575P
T3 sequence (P13006 17-605): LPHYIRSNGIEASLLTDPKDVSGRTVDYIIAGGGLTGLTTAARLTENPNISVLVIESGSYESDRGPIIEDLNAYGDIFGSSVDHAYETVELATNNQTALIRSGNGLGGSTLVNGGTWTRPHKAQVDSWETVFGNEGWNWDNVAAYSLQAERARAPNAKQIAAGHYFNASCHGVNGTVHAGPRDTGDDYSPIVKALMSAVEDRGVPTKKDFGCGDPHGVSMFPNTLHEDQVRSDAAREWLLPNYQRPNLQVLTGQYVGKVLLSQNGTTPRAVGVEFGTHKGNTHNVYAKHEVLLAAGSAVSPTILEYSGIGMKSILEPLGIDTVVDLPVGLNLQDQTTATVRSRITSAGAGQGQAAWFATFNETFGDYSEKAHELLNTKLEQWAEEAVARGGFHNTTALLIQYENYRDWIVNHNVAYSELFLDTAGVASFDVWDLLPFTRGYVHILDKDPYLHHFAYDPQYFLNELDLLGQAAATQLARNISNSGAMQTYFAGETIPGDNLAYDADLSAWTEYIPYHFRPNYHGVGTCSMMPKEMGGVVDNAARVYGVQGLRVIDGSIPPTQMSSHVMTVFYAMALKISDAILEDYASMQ
Procedure: as §1, §2
The original solutions (i.e. solutions prior to drying) contained 350 μg mL^−1 of glucose oxidase and typically the total of 100 mM of protective compounds (i.e. 100 mM in case of a single compound, 50 mM+50 mM in case of two compounds, 33.3 mM+33.3 mM+33.3 mM in the case of three compounds etc.). The solutions were dried and gamma irradiated. Following the gamma irradiation, the samples, both pre- and post-gamma irradiated, were assayed for glucose oxidase activity. This was performed according to the following procedure:
Water was added to the sample to achieve 350 μg mL^−1 of glucose oxidase. 50 μL of the solution was added to 50 mL of deionised water. The following solutions were then added: • 10 mL of reagent mix (5 parts of 0.1 M sodium phosphate, pH 6+4 parts 2% w/w starch+1 part of 1 mg/mL lactoperoxidase enzyme); • 5 mL of 100 mM potassium iodide; and • 5 mL of 20% w/w glucose solution.
These were mixed together quickly. Time=0 was counted from the addition of the glucose. After 5 min, 1 ml of 5 M aq. hydrochloric acid was added to stop the reaction. The absorbance was then read at 630 nm using a Unicam UV-visible spectrophotometer (Type: Helios gamma). If the colour intensity was too great to allow an accurate reading, the sample was diluted with a defined volume of deionised water to bring the colour back on scale. The results were expressed as percentage recovery, by reference to the absorbance measured in the pre-gamma irradiation samples.

[6] = Table 6, singlet oxygen scavengers, ambient temperature
[7] = Table 5, singlet oxygen scavengers, ambient temperature
[8] = Table 12, superoxide scavengers
[9] = Table 10, superoxide scavengers
[10] = Table 11, superoxide scavengers
[11] = Table 4, prior-art antioxidants, ambient temperature
[12] = Table 3, prior-art antioxidants, ambient temperature, vs non-irradiated

Cc1ncc(C[n+]2csc(CCO)c2C)c(N)n1 [Thiamine]
Enzyme activity remaining after gamma-irradiation ([1]; Table 8, singlet oxygen scavengers): 87.7%
Rate constant k [2]: k = 6 × 10^7 L mol^−1 s^−1
Rate of reaction with singlet oxygen ([2]; Table 5): 6e+07 M⁻¹ s⁻¹
Rate of reaction with singlet oxygen ([2]; Table 6): 6e+07 M⁻¹ s⁻¹
Rate of reaction with singlet oxygen ([2]; Table 7): 6e+07 M⁻¹ s⁻¹
Rate of reaction with singlet oxygen ([2]; Table 8): 6e+07 M⁻¹ s⁻¹
Enzyme activity remaining after gamma-irradiation [3, 6]: 26.1%
Structural integrity remaining after gamma-irradiation (HPLC) ([4]; Table 7, singlet oxygen scavengers): 48.8%
Enzyme activity remaining after gamma-irradiation [5, 7]: 43.1%

O=S(=O)(O)c1cc(O)c(O)c(S(=O)(=O)O)c1 [Tiron]
Enzyme activity remaining after gamma-irradiation [1, 8]: 89.7%
Enzyme activity remaining after gamma-irradiation [3, 9]: 17.9%
Structural integrity remaining after gamma-irradiation (HPLC) [4, 10]: 55.7%
Enzyme activity remaining after gamma-irradiation ([5]; Table 9, superoxide scavengers): 27.5%

OC[C@@H](O)[C@@H](O)[C@H](O)[C@H](O)CO [Mannitol]
Enzyme activity remaining after gamma-irradiation [1, 8]: 72.6%
Enzyme activity remaining after gamma-irradiation [3, 9]: 36.3%
Structural integrity remaining after gamma-irradiation (HPLC) [4, 10]: 28.3%
Enzyme activity remaining after gamma-irradiation ([5]; Table 9, superoxide scavengers): 17.2%

Cc1c(C)c2c(c(C)c1O)CCC(C)(C(=O)O)O2 (stereo not drawn) [Trolox]
Structural integrity remaining after gamma-irradiation (HPLC) [4, 11]: 49.6%
Enzyme activity remaining after gamma-irradiation [5, 12]: 45.9%

Silymarine
Structural integrity remaining after gamma-irradiation (HPLC) [4, 11]: 63.0%
Enzyme activity remaining after gamma-irradiation [5, 12]: 46.3%

[Ni+2] [Nickel (II) ion]
Rate constant k [2]: k = 3.3 × 10^7 L mol^−1 s^−1

N[C@@H](CS)C(=O)O [Cysteine anion]
Rate constant k [2]: k = 1.5 × 10^8 L mol^−1 s^−1

Oc1nc(O)c2nc(O)[nH]c2n1 [Urate]
Structural integrity remaining after gamma-irradiation (HPLC) [4, 11]: 61.5%
Enzyme activity remaining after gamma-irradiation [5, 12]: 32.6%

O=C(O)CC(O)(CC(=O)O)C(=O)O [Citrate]
Enzyme activity remaining after gamma-irradiation [1, 8]: 91.8%
Enzyme activity remaining after gamma-irradiation [3, 9]: 39.5%
Structural integrity remaining after gamma-irradiation (HPLC) [4, 10]: 45.6%
Enzyme activity remaining after gamma-irradiation ([5]; Table 9, superoxide scavengers): 32.0%

NCC(=O)NCC(=O)O [Glycylglycine] (H-Gly-Gly-OH)
Structural integrity remaining after gamma-irradiation (HPLC) [4, 11]: 47.2%
Enzyme activity remaining after gamma-irradiation [5, 12]: 20.1%

CC12CCC(CC1)C(C)(C)O2 [Eucaliptol]
Compatibility of the compound with catalase ([3]; as excipient in the formulation): inhibit catalase
Enzyme activity remaining after gamma-irradiation ([5]; Table 13, ozone scavengers): 17.5%

NC(=O)C1=CN([C@@H]2O[C@H](COP(=O)(O)OP(=O)(O)OC[C@H]3O[C@@H](n4cnc5c(N)ncnc54)[C@H](O)[C@@H]3O)[C@@H](O)[C@H]2O)C=CC1 [NADH]
Rate constant k [2]: k = 2 × 10^7 L mol^−1 s^−1

O=C(O)CC(O)C(=O)O (stereo not drawn) [Malate]
Enzyme activity remaining after gamma-irradiation [1, 8]: 87.7%
Enzyme activity remaining after gamma-irradiation [3, 9]: 40.9%
Structural integrity remaining after gamma-irradiation (HPLC) [4, 10]: 52.1%
Enzyme activity remaining after gamma-irradiation ([5]; Table 9, superoxide scavengers): 40.7%

[Cu+2] [Copper(II) ion]
Rate constant k [2]: k = 6.4 × 10^7 L mol^−1 s^−1

[N-]=[N+]=[N-] [Azide anion]
Rate constant k [2]: k = 4.5 × 10^8 L mol^−1 s^−1

C[C@H](N)C(=O)O [Alanine]
Rate constant k [2]: k = 3.0 × 10^7 L mol^−1 s^−1
Rate of reaction with singlet oxygen ([2]; Table 5): 3e+07 M⁻¹ s⁻¹
Rate of reaction with singlet oxygen ([2]; Table 6): 3e+07 M⁻¹ s⁻¹
Enzyme activity remaining after gamma-irradiation [3, 6]: 8.8%
Enzyme activity remaining after gamma-irradiation [5, 7]: 15.3%

CC(=O)CCCCn1c(=O)c2c(ncn2C)n(C)c1=O [Pentoxyfylline, reference compound]
Enzyme activity remaining after gamma-irradiation ([3]; Table 14, ozone scavenger): 77.0%
Structural integrity remaining after gamma-irradiation (HPLC) ([4]; Table 15, ozone scavenger): 46.0%
Enzyme activity remaining after gamma-irradiation ([5]; Table 13, ozone scavengers): 36.2%
